# Reference: patent US10420341B2, “Herbicidal phenylpyrimidines” (BASF SE, priority 2015, dated 2019)
# Tests used:
# LOLMU = experiment: greenhouse post-emergence herbicidal test; assay type: in vivo, Lolium multiflorum; settings: post-emergence method, scale from 0 to 100
# Excerpt: The seeds of the test plants were sown separately for each species. For the post-emergence treatment, the test plants were first grown to a height of 3 to 15 cm, depending on the plant habit, and only then treated with the active ingredients which had been suspended or emulsified in water. For this purpose, the test plants were either sown directly and grown in the same containers, or they were first grown separately as seedlings and transplanted into the test containers a few days prior to treatment. Depending on the species, the plants were kept at 10-25° C. or 20-35° C., respectively. The test period extended over 2 to 4 weeks. During this time, the plants were tended, and their response to the individual treatments was evaluated. Evaluation was carried out using a scale from 0 to 100. 100 means no emergence of the plants, or complete destruction of at least the aerial moieties, and 0 means no damage, or normal course of growth. […] The plants used in the greenhouse experiments were of the following species: [table]
# ECHCG [1] = experiment: greenhouse post-emergence herbicidal test; assay type: in vivo, Echinocloa crus-galli; settings: post-emergence method, scale from 0 to 100
# Summary of the method: (§1)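 Scoring 0 (no damage) to 100 (no emergence or total destruction of aerial parts), taken over a 2 to 4 week period after post-emergence treatment at 3 to 15 cm plant height. Compounds applied as aqueous suspension or emulsion; greenhouse temperature 10-25° C. or 20-35° C. depending on species.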
# APESV = experiment: greenhouse pre-emergence herbicidal test; assay type: in vivo, Apera spica-venti; settings: pre-emergence method, scale from 0 to 100
# Summary of the method: (§2)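 After each species was sown separately, test compounds in water were applied at once with finely distributing nozzles. Containers were then irrigated and covered until rooting, held at species-dependent temperatures (10-25° C. or 20-35° C.), and assessed over 2 to 4 weeks on a 0-100 injury scale.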
# POLCO = experiment: greenhouse post-emergence herbicidal test; assay type: in vivo, Polygonum convolvulus; settings: post-emergence method, scale from 0 to 100
# Summary of the method: as §1
# ECHCG [2] = experiment: greenhouse pre-emergence herbicidal test; assay type: in vivo, Echinocloa crus-galli; settings: pre-emergence method, application rate 500 g/ha, scale from 0 to 100
# Summary of the method: as §2
# AMARE [3] = experiment: greenhouse post-emergence herbicidal test; assay type: in vivo, Amaranthus retroflexus; settings: post-emergence method, scale from 0 to 100
# Summary of the method: as §1
# ABUTH = experiment: greenhouse post-emergence herbicidal test; assay type: in vivo, Abutilon theophrasti; settings: post-emergence method, scale from 0 to 100
# Summary of the method: as §1
# SETFA = experiment: greenhouse pre-emergence herbicidal test; assay type: in vivo, Setaria faberi; settings: pre-emergence method, application rate 500 g/ha, scale from 0 to 100
# Excerpt: (§3) The seeds of the test plants were sown separately for each species. For the pre-emergence treatment, the active ingredients, which had been suspended or emulsified in water, were applied directly after sowing by means of finely distributing nozzles. The containers were irrigated gently to promote germination and growth and subsequently covered with transparent plastic hoods until the plants had rooted. This cover caused uniform germination of the test plants, unless this had been impaired by the active ingredients. Depending on the species, the plants were kept at 10-25° C. or 20-35° C., respectively. The test period extended over 2 to 4 weeks. During this time, the plants were tended, and their response to the individual treatments was evaluated. Evaluation was carried out using a scale from 0 to 100. 100 means no emergence of the plants, or complete destruction of at least the aerial moieties, and 0 means no damage, or normal course of growth. […] The plants used in the greenhouse experiments were of the following species: [table]
# AVEFA = experiment: greenhouse post-emergence herbicidal test; assay type: in vivo, Avena fatua; settings: post-emergence method, scale from 0 to 100
# Summary of the method: as §1
# AMARE [4] = experiment: greenhouse pre-emergence herbicidal test; assay type: in vivo, Amaranthus retroflexus; settings: pre-emergence method, application rate 1000 g/ha, scale from 0 to 100
# Excerpt: as §3
# ALOMY = experiment: greenhouse post-emergence herbicidal test; assay type: in vivo, Alopercurus myosuroides; settings: post-emergence method, application rate 1000 g/ha, scale from 0 to 100
# Summary of the method: as §1
smiles,measurement,setting,value
CCc1ncc(-c2ccccc2Cl)c(C(=O)O)n1 [example 6],herbicidal activity against LOLMU,LOLMU; application rate 500 g/ha,good (A good herbicidal activity is given at values of at least 70)
same,herbicidal activity against ECHCG,ECHCG [1]; application rate 500 g/ha,very good (a very good herbicidal activity is given at values of at least 85)
same,herbicidal activity against APESV,APESV; application rate 500 g/ha,very good (a very good herbicidal activity is given at values of at least 85)
same,herbicidal activity against POLCO,POLCO; application rate 500 g/ha,very good (a very good herbicidal activity is given at values of at least 85)
CS(=O)(=O)NC(=O)c1nc(C2CC2)ncc1-c1ccccc1Cl [example 286],herbicidal activity against LOLMU,LOLMU; application rate 500 g/ha,very good (a very good herbicidal activity is given at values of at least 85)
same,herbicidal activity against APESV,APESV; application rate 500 g/ha,very good (a very good herbicidal activity is given at values of at least 85)
same,herbicidal activity against ECHCG,ECHCG [2],very good (a very good herbicidal activity is given at values of at least 85)
same,herbicidal activity against AMARE,AMARE [3]; application rate 500 g/ha,very good (a very good herbicidal activity is given at values of at least 85)
Cc1ccc(C)c(-c2cnc(C(C)C)nc2C(=O)O)c1 [example 34],herbicidal activity against LOLMU,LOLMU; application rate 500 g/ha,good (A good herbicidal activity is given at values of at least 70)
same,herbicidal activity against ECHCG,ECHCG [1]; application rate 500 g/ha,very good (a very good herbicidal activity is given at values of at least 85)
same,herbicidal activity against APESV,APESV; application rate 500 g/ha,very good (a very good herbicidal activity is given at values of at least 85)
same,herbicidal activity against ECHCG,ECHCG [2],very good (a very good herbicidal activity is given at values of at least 85)
Cc1ccccc1-c1cnc(-c2ccccc2)nc1C(=O)O [example 271],herbicidal activity against ECHCG,ECHCG [1]; application rate 500 g/ha,very good (a very good herbicidal activity is given at values of at least 85)
same,herbicidal activity against ABUTH,ABUTH; application rate 500 g/ha,very good (a very good herbicidal activity is given at values of at least 85)
same,herbicidal activity against SETFA,SETFA,good (A good herbicidal activity is given at values of at least 70)
COC(=O)CCSC(=O)c1nc(C2CC2)ncc1-c1ccccc1Cl [example 307],herbicidal activity against AVEFA,AVEFA; application rate 250 g/ha,very good (a very good herbicidal activity is given at values of at least 85)
same,herbicidal activity against LOLMU,LOLMU; application rate 250 g/ha,very good (a very good herbicidal activity is given at values of at least 85)
same,herbicidal activity against ECHCG,ECHCG [1]; application rate 250 g/ha,good (A good herbicidal activity is given at values of at least 70)
same,herbicidal activity against APESV,APESV; application rate 250 g/ha,very good (a very good herbicidal activity is given at values of at least 85)
COC(=O)c1nc(C2CCCO2)ncc1-c1ccccc1C (stereo not shown) [example 276],herbicidal activity against ABUTH,ABUTH; application rate 1000 g/ha,very good (a very good herbicidal activity is given at values of at least 85)
same,herbicidal activity against AMARE,AMARE [4],very good (a very good herbicidal activity is given at values of at least 85)
same,herbicidal activity against AMARE,AMARE [3]; application rate 1000 g/ha,very good (a very good herbicidal activity is given at values of at least 85)
COC(=O)c1nc(C2CC2)ncc1-c1c(Cl)cc(F)cc1Cl [example 208],herbicidal activity against AVEFA,AVEFA; application rate 1000 g/ha,very good (a very good herbicidal activity is given at values of at least 85)
same,herbicidal activity against APESV,APESV; application rate 1000 g/ha,very good (a very good herbicidal activity is given at values of at least 85)
same,herbicidal activity against ALOMY,ALOMY,very good (a very good herbicidal activity is given at values of at least 85)
same,herbicidal activity against AMARE,AMARE [4],good (A good herbicidal activity is given at values of at least 70)
Cc1ccccc1-c1cnc(C2CC2)nc1C(=O)O [example 161],herbicidal activity against LOLMU,LOLMU; application rate 1000 g/ha,good (A good herbicidal activity is given at values of at least 70)
same,herbicidal activity against APESV,APESV; application rate 1000 g/ha,very good (a very good herbicidal activity is given at values of at least 85)
same,herbicidal activity against ALOMY,ALOMY,good (A good herbicidal activity is given at values of at least 70)
same,herbicidal activity against POLCO,POLCO; application rate 1000 g/ha,good (A good herbicidal activity is given at values of at least 70)
same,herbicidal activity against AMARE,AMARE [3]; application rate 1000 g/ha,good (A good herbicidal activity is given at values of at least 70)
